Activity data for 2 compounds are collected here from ChEMBL document CHEMBL5247643, “Discovery and Characterization of BAY-805, a Potent and Selective Inhibitor of Ubiquitin-Specific Protease USP21” (J Med Chem, 2023).

The subject of one test is Jurkat. Nature of the test: Antiproliferative activity against human Jurkat cells assessed as reduction in cell viability up to 30 uM incubated for 72 hrs by CellTiter-Glo luminescent assay. The format is functional, cell-based. Background: ATP-based viability assays read luminescence as a measure of living cells.
Test [1] addresses T1, Ubiquitin carboxyl-terminal hydrolase 8 (Homo sapiens) (UniProt P40818).
T1 sequence (whole entry): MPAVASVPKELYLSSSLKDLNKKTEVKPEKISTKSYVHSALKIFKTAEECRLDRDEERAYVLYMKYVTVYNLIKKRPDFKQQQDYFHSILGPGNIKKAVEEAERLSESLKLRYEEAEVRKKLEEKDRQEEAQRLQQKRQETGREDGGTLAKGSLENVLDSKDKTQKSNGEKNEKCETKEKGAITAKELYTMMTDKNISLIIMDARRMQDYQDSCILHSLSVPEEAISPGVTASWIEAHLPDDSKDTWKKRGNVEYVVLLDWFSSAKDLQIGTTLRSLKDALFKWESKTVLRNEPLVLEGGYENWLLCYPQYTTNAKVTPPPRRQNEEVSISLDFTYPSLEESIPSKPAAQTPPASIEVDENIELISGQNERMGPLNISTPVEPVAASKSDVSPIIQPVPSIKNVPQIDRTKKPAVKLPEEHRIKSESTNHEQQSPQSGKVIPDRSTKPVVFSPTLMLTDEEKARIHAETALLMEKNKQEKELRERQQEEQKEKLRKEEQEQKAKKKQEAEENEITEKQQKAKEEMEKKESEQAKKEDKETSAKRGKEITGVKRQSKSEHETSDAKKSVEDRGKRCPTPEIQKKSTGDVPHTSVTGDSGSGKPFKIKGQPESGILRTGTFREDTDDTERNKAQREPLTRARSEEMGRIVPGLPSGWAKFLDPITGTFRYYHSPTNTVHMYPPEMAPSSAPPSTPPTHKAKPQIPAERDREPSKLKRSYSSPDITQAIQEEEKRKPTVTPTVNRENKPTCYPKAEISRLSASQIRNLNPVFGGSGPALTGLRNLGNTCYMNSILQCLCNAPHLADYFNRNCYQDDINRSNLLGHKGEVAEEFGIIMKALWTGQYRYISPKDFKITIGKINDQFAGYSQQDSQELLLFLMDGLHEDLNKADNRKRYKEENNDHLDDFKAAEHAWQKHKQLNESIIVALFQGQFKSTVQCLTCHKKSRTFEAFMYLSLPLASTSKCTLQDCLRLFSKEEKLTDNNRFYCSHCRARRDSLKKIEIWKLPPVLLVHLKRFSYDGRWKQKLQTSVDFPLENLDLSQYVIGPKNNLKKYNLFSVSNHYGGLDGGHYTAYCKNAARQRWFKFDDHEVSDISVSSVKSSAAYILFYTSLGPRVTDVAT
Nature of the test: Inhibition of human USP8 (734 to 1110 residues) expressed in Escherichia coli BL21 (DE3) using ubiquitin rhodamine 110 as substrate assessed as remaining enzyme activity at 10 to 50 uM by fluorometric assay. The settings on record: dose 10-50 µM.

Test [2] addresses T2, Ubiquitin carboxyl-terminal hydrolase 4 (Homo sapiens) (UniProt Q13107).
T2 sequence (whole entry): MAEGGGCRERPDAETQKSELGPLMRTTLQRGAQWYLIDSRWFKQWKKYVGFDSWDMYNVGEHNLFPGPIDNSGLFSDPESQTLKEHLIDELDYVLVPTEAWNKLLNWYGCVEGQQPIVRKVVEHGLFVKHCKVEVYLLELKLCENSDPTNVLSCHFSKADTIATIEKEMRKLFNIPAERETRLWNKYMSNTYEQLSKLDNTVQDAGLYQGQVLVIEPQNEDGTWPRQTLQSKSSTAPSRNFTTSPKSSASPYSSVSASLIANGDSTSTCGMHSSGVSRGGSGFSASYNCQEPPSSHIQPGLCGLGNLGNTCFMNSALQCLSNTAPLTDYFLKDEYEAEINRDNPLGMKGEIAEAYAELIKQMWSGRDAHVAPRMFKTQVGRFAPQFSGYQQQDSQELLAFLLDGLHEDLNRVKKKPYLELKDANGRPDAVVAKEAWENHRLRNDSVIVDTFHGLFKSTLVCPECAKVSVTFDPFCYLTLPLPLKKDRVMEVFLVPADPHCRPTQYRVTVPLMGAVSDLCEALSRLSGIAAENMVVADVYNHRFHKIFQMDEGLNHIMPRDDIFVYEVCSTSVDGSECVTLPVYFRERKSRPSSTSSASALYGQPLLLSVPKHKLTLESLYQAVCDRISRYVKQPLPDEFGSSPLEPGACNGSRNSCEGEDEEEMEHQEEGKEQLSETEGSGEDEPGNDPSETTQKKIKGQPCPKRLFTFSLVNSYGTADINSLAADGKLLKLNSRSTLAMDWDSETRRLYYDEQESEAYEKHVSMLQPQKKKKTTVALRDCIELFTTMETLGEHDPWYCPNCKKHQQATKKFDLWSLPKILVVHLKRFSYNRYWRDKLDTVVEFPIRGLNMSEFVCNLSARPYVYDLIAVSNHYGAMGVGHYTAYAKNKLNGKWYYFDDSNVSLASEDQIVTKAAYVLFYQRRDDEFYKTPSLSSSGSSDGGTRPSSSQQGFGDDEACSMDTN
The test is described as follows: Inhibition of human USP4 (1 to 932 residues) expressed in Sf9 cells using ubiquitin rhodamine 110 as substrate assessed as remaining enzyme activity at 10 to 50 uM by fluorometric assay. The settings on record: dose 10-50 µM.

For a further test, the target named is Ataxin-3 (Homo sapiens) (UniProt P54252). The test is described as follows: Inhibition of human Ataxin-3 (1 to 370 residues) expressed in Escherichia coli BL21 (DE3) using ubiquitin rhodamine 110 as substrate assessed as remaining enzyme activity at 10 to 50 uM by fluorometric assay. The settings on record: dose 10-50 µM.
Chain of Ataxin-3 (Homo sapiens) (P54252 whole entry, the tested form may be a part): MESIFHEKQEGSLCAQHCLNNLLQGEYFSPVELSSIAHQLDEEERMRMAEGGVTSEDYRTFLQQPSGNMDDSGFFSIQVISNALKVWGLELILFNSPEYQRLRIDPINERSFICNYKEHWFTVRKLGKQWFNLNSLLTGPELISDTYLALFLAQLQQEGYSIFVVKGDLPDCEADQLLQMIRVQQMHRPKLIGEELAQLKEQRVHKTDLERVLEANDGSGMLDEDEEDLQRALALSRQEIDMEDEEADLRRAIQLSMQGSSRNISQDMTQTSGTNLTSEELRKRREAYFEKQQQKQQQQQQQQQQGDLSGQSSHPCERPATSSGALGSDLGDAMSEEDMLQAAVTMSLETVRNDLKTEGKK
In test [3] the target is T3, Ubiquitin carboxyl-terminal hydrolase 2 (Homo sapiens) (UniProt O75604).
T3 sequence (whole entry): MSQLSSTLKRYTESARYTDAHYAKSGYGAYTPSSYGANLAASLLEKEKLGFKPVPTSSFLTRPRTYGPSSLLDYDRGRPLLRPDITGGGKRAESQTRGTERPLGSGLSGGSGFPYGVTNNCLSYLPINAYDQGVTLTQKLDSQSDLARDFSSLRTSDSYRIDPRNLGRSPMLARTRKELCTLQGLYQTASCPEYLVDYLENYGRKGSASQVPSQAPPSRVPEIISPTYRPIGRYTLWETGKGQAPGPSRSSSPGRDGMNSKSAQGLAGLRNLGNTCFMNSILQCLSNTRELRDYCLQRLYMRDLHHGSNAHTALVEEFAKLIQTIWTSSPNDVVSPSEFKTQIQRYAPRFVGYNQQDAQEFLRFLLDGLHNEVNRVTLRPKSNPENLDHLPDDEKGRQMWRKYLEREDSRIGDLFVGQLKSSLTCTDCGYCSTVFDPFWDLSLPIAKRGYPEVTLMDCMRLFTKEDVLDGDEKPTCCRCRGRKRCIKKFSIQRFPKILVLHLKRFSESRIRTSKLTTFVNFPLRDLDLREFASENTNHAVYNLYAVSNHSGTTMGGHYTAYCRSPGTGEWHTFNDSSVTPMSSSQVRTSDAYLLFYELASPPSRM
The test is described as follows: Inhibition of human USP2 (251 to 605 residues) expressed in Escherichia coli BL21 (DE3) using ubiquitin rhodamine 110 as substrate assessed as remaining enzyme activity at 10 to 50 uM by fluorometric assay. The settings on record: dose 10-50 µM.

Each structure is given as a SMILES string. Calls of active or inactive are those of the source. No cut-off for these calls is given here.

Turning to `CC(C)C[C@H](NC(=O)C1(C(F)(F)F)CCCCC1)C(=O)Nc1nnc(Cc2ccc(C#N)cc2)s1`, in the test on Jurkat, the result was inactive.

For the compound `CC(NC(=O)C1CCCC1)C(=O)Nc1nnc(Cc2ccc([N+](=O)[O-])cc2)s1` (racemic), the Activity (in test [1]; in test [2]; on Ataxin-3 (Homo sapiens); in test [3]) was less than 50% each time.
